From patent US8119609B2, “Methods of treating diabetic retinopathy with pericyte apoptosis inhibitors” (Merck Sante, priority 2000, dated 2012)
Where “and” joins values, the source holds several entries; their conditions need not be identical. Equal entries are not always repeated. Entries after “also recorded” stand apart in the source; their conditions may differ. Each block holds one compound with its values, some of them ahead of it.

Key:
[1] = system: bovine retinal pericytes; assay: Apoptosis of bovine retinal pericytes cultured with AGE-methylglyoxal, annexin V / propidium iodine staining; assay type: cell-based
Description: The effects of AGE were tested on a uniform batch of cells (bovine retinal pericytes stemming from the same primary culture). When they were at confluence, the bovine retinal pericytes in primary culture were trypsinated. After having allowed them to become attached for 4 hours at 37° C., the medium and the cell debris that had not adhered to the matrix were eliminated and the culture medium (10% of FCS for bovine retinal pericytes) was added. An AGE solution (or its control) was added to the culture medium until reaching a concentration of […] to test the effects of AGE. The cultures were then continued for 1 or 2 passages with the agents, either for 7 or 15 days, respectively, for the bovine retinal pericytes.
Apoptosis was detected and quantified in pericytes cultured during two passages with 2 μM of AGE-methylglyoxal or its control using the technique based on detecting apoptotic cells with annexin V and detecting necrotic cells with propidium iodine.
The presence of phosphatidylserine (PS) on the external layer of the plasma membrane, which is characteristic of apoptotic cells, can be detected using annexin V labeled with fluorescein. This protein has a very strong affinity for PS. Staining is performed in the presence of an intercalating DNA dye, propidium iodine, similar to ethidium bromide to distinguish the apoptotic cells from possibly present necrotic cells which also fix annexin V. For this labeling the pericytes must be subconfluent (75% of confluence) and, thus, cultured for only about 12 days with AGE-methylglyoxal or BSA control.
The bovine retinal pericytes (dish 3.5 cm in diameter) were rinsed three times with PBS then incubated for 10 minutes in the dark with 500 μl of a HEPES buffer containing 10 μl of the fluorescein-labeled annexin V solution and 10 μl of the propidium iodine solution provided in the determination kit. The apoptotic cells as well as the necrotic cells fixed the annexin V and thus appeared green under the fluorescence microscope, but only the nuclei of the necrotic cells were dyed red by the propidium iodine. The percentages of necrotic cells and apoptotic cells were determined on 10 different fields, i.e., on a total of 300 to 800 cells.
Apoptosis was detected and quantified by labeling with annexin V and propidium iodine in bovine retinal pericytes during two passages with 2 μM of AGE-methylglyoxal or their control (see Material and Methods). […] Fluorescein-labeled annexin V stained green the plasma membranes of the apoptotic and necrotic cells, but only the necrotic cells whose cells had lost their integrity, were permeable to propidium iodide which stained their nuclei red. […] The cells were cultured during two passages (approximately 15 days) in the presence of 2 μM of AGE-methylglyoxal or control BSA. The results are expressed as % of apoptotic cells in the total cell population.

[2] = system: bovine retinal pericytes; assay: Determination of ceramides and diacylglycerols (DAG) in pericytes cultured with AGE-methylglyoxal (DAG-kinase, 32P-ATP); assay type: cell-based; conditions: for % inhibition of the stimulated production of DAG induced by AGE-methylglyoxal / % inhibition of the stimulated production of ceramides induced by AGE-methylglyoxal: two passages
Description: The ceramides and diacylglycerols were measured in the pericytes cultured during two passages with […] of AGE-methylglyoxal or their control according to the method described by Preiss et al. (1986). This method is based on the phosphorylation of the ceramides and DAG by purified diacylglycerol kinase (DAG-kinase) from Escherichia coli in the presence of ATP labeled with ^32P on the γ phosphor in accordance with the diagram shown in FIG. 3.
The pericytes (2 or 3 dishes, 6 cm in diameter) were rinsed, recovered by scraping with a rubber policeman in 0.5 ml of water on ice and the dish rinsed by a supplementary 0.5 ml (volume of 1 ml of cell suspension) to which was added 10 μl of a solution of (9,10-^3H)-triacylglycerol at 0.5 μCi/ml.
The total lipids were then extracted by the method of Bligh and Dyer (1959). To this cell suspension (1 ml of PBS) was added 3.75 ml of a chloroform: methanol (2:1, v/v) mixture containing 80 μl of BHT (5 mM) in solution in ethanol. The solutions were then vortexed for 30 seconds and allowed to stand for a minimum of 30 minutes, then 1.25 ml of NaCl (0.9%) and 1.25 ml of chloroform were added to separate the phases. After centrifugation (700 g, 5 minutes), the bottom organic phase was collected and extraction of the aqueous phase was repeated twice with 1.5 ml of chloroform. The lipid extracts were then collected and the chloroform evaporated under a nitrogen stream. The aqueous phase enabled determination of the total proteins by staining with amide black and the organic phase was recovered in an Eppendorf tube then evaporated under nitrogen.
A standard range of ceramides (25 to 2500 ng) and DAG (25 to 25,000 ng) containing the same quantity of tritium-labeled triacylglycerol was prepared in parallel. The lipids were then solubilized in 20 μl of a solution of detergents (7.5% of n-octylglucopyranoside, […] and 1 mM of DETAPAC) by 1 minute of sonication followed by incubation for 15 minutes at ambient temperature. The reaction was started by addition of 50 μl of reaction buffer (imidazole 100 mM, NaCl 100 mM, MgCl2 25 mM, EGTA 2 mM, pH 6.6), 20 μl of a solution of DAG-kinase (4.86 mU) containing 10 mM of DTT and 10 μl of [γ-^32P] ATP at 5 mCi/ml diluted 10-fold in a solution containing 10 mM of unlabeled ATP, 100 mM of imidazole and 1 mM of DETAPAC (pH 6.6). The reaction was allowed to continue for 1 hour at ambient temperature and then stopped by 1 ml of the mixture chloroform:methanol: 1N hydrochloric acid (100:100:1, v/v/v), 170 μl of a buffer containing 10 mM of HEPES, 135 mM of NaCl, 1.5 mM of CaCl2, 0.5 mM of MgCl2 and 5.6 mM of glucose (pH 7.4) then 30 μl of EDTA 100 mM. The mixture was then vortexed, allowed to stand for 15 minutes at ambient temperature, then centrifuged (10,000 g, 5 minutes) at ambient temperature.
The organic phase (bottom) was collected and evaporated under nitrogen. The lipids were then taken up with 300 μl of the mixture ether:methanol (9:1, v/v) and deposited on a silica plate. The ceramides-1-phosphate were separated from the phosphatidic acid and triacylglycerols using the mixture chloroform:methanol: acetic acid (65:15:5, v/v/v) as migration solvent.
Exposure of the silica plate to an autoradiographic film (30 minutes, 80° C.) allowed visualization of the different ^32P-labeled lipids. The spots corresponding to the ceramides-1-phosphate and phosphatidic acid as well as the last 3 cm before the migration front (corresponding to the triacylglycerols) were delimited with a graphite crayon and scratched. The silica was recovered in counting pots, moistened with 200 μl of methanol, 200 μl of distilled water and 2 ml of scintillation liquid (Picofluor) for 2 hours before the addition of 8 ml of the scintillation liquid. The radioactivity emitted by the ^32P or the ^3H was then counted in each pot. The radioactivity emitted by the mother solution of (9,10-^3H)-triacylglycerol was also counted which allowed calculation of the reaction yield for each sample. […]

[3] = system: retina of diabetic rats; conditions: cited from earlier work; for loss / disappearance of pericytes in the retina of diabetic rats: literature
[4] = 10 μM, listed as Nα-acetyl-cysteine
[5] = 50 μM, listed as Nα-acetyl-cysteine

Compound: CC1=C(/C=C/C(C)=C/C=C/C(C)=C/C=C/C=C(C)/C=C/C=C(C)/C=C/C2=C(C)C[C@@H](O)CC2(C)C)C(C)(C)C[C@H](O)C1 [zeaxanthin]
- % inhibition of the apoptosis induced by AGE-methylglyoxal ([1]; 2 μM, two passages): 50%

- % inhibition of the stimulated production of DAG induced by AGE-methylglyoxal ([2]; 50 μM): not affected
- % inhibition of the stimulated production of ceramides induced by AGE-methylglyoxal ([2]; 50 μM): not affected
Compound: z-LEHD-fmk
- % inhibition of the apoptosis induced by AGE-methylglyoxal ([1]; 50 μM, two passages): almost total inhibition

- % inhibition of the stimulated production of DAG induced by AGE-methylglyoxal ([2]; 50 μM): 100%
- % inhibition of the stimulated production of ceramides induced by AGE-methylglyoxal ([2]; 50 μM): 75%
Compound: z-VAD-fmk
- % inhibition of the apoptosis induced by AGE-methylglyoxal ([1]; 50 μM, two passages): almost total inhibition

Compound: CCCC[C@@H](C)[C@@H](OC(=O)C[C@@H](CC(=O)O)C(=O)O)[C@H](C[C@@H](C)C[C@H](O)CCCC[C@@H](O)C[C@H](O)[C@H](C)N)OC(=O)C[C@@H](CC(=O)O)C(=O)O [fumonisin B1]
- % inhibition of the apoptosis induced by AGE-methylglyoxal ([1]; 0.01 μM, two passages): 22%
- % inhibition of the apoptosis induced by AGE-methylglyoxal ([1]; 0.01 μM, two passages, listed as Fumonisin B1, 0.01 µM): 20%
- effect on the base apoptosis rate of cells cultured in BSA control ([1]; 0.1 μM (results not shown)): proapoptotic

- baseline levels of the ceramides and DAG in the cells cultured with BSA control ([2]; 1 μM (results not shown)): affected
Compound: CNCCCN1c2ccccc2CCc2ccccc21 [desipramine, 10,11-dihydro-5-(3-(methylamino)propyl)-5H-dibenz(b,f)azepine]
- % inhibition of the stimulated production of DAG induced by AGE-methylglyoxal ([2]; 0.1 μM): 17%
- % inhibition of the stimulated production of ceramides induced by AGE-methylglyoxal ([2]; 0.1 μM): 78%
- % inhibition of the stimulated production of DAG induced by AGE-methylglyoxal ([2]; 0.3 μM): 13%
- % inhibition of the stimulated production of ceramides induced by AGE-methylglyoxal ([2]; 0.3 μM): 95%
- % inhibition of the apoptosis induced by AGE-methylglyoxal ([1]; 0.3 μM (b168 prints 0.3 mM), two passages): 50%
- baseline apoptosis rate of the control cells ([1]; 1 μM (results not shown)): affected
- inhibition at 0.1 µM ([1]; Bos taurus, 0.1 μM, two passages, read-out: % inhibition of the apoptosis induced by AGE-methylglyoxal): 35%
- inhibition at 0.3 µM ([1]; Bos taurus, 0.3 μM (b168 prints 0.3 mM), two passages, read-out: % inhibition of the apoptosis induced by AGE-methylglyoxal): 35%

Compound: N=C(N)NN [aminoguanidine]
- loss / disappearance of pericytes in the retina of diabetic rats [3]: prevents
- reduction of the number of acellular capillaries in the retina ([3]; streptozotocin diabetic rat model (Hammes et al., 1991)): 80%

Compound: Cc1c(C)c2c(c(C)c1O)CCC(C)(C(=O)O)O2 (centres unmarked) [trilox]
- loss / disappearance of pericytes in the retina of diabetic rats [3]: prevent

Compound: O=c1c2ccccc2[se]n1-c1ccccc1 [ebselen]
- inhibition at 5 µM ([1]; Bos taurus, 5 μM, two passages, read-out: % inhibition of the apoptosis induced by AGE-methylglyoxal): 94%
- inhibition at 10 µM ([1]; Bos taurus, 10 μM, two passages, read-out: % inhibition of the apoptosis induced by AGE-methylglyoxal): 88%

Compound: Nc1ncc(-c2ccc(O)cc2)nc1Cc1ccccc1 [coelenteramine]
- % inhibition of the apoptosis induced by AGE-methylglyoxal ([1]; 2 μM, two passages): 60% and ~50%

- % inhibition of the stimulated production of DAG induced by AGE-methylglyoxal [2, 4]: normalized
- % inhibition of the stimulated production of ceramides induced by AGE-methylglyoxal [2, 4]: normalized
- % inhibition of the stimulated production of DAG induced by AGE-methylglyoxal [2, 5]: normalized
- % inhibition of the stimulated production of ceramides induced by AGE-methylglyoxal [2, 5]: normalized
Compound: CC(=O)N[C@@H](CS)C(=O)O [N-acetyl-L-cysteine, Nα-acetyl-L-cysteine]
- % inhibition of the apoptosis induced by AGE-methylglyoxal ([1]; 10 μM, two passages): protected the pericytes against the apoptosis; also recorded: complete inhibition
- % inhibition of the apoptosis induced by AGE-methylglyoxal ([1]; 10 μM, two passages, listed as Nα-acetyl-cysteine): normalized
- % inhibition of the apoptosis induced by AGE-methylglyoxal ([1]; 50 μM, two passages): protected the pericytes against the apoptosis
- % inhibition of the apoptosis induced by AGE-methylglyoxal ([1]; 50 μM, two passages, listed as Nα-acetyl-cysteine): normalized

- % inhibition of the stimulated production of DAG induced by AGE-methylglyoxal ([2]; 9.4 μM): 80%
- % inhibition of the stimulated production of ceramides induced by AGE-methylglyoxal ([2]; 9.4 μM): 95%
- % inhibition of the stimulated production of DAG induced by AGE-methylglyoxal ([2]; 30 μM): 65%
- % inhibition of the stimulated production of ceramides induced by AGE-methylglyoxal ([2]; 30 μM): complete inhibition
Compound: S=C(S)OC1CC2CC1C1CCCC21 (centres unmarked) [D609]
- % inhibition of the apoptosis induced by AGE-methylglyoxal ([1]; 9.4 μM, two passages): 40%
- % inhibition of the apoptosis induced by AGE-methylglyoxal ([1]; 30 μM, two passages): 47% and 50%

- % inhibition of the stimulated production of DAG induced by AGE-methylglyoxal ([2]; 50 μM): not affected
- % inhibition of the stimulated production of ceramides induced by AGE-methylglyoxal ([2]; 50 μM): not affected
Compound: z-DEVD-fmk
- % inhibition of the apoptosis induced by AGE-methylglyoxal ([1]; 50 μM, two passages): almost total inhibition

Compound: z-VDVAD-fmk
- % inhibition of the apoptosis induced by AGE-methylglyoxal ([1]; 50 μM, two passages): partial inhibition
- % inhibition of the apoptosis induced by AGE-methylglyoxal ([1]; 50 μM, two passages, listed as z-VDVAD): partially inhibits
